We go through 1 compound from patent publication US10091998B2, “Tetrazolinone compound and use thereof” (SUMITOMO CHEMICAL COMPANY, LIMITED, priority 2013, dated 2018).

For this assay, the system named is cucumber powdery mildew fungus (Sphaerotheca fuliginea, a QoI-resistant strain, cytochrome b position 143 glycine to alanine). The assay is classed as in vivo. As to conditions: 500 ppm spray on cucumber (SAGAMI HANJIRO); investigated 8 days after inoculation.

On to `Cn1nnn(-c2ccccc2OCc2ccccc2)c1=O` [1-[2-(phenylmethoxy)phenyl]-4-methyl-1,4-dihydrotetrazol-5-one], for which the “area of lesion on the treated plant relative to that on an untreated plant” value is at least 70%.
